This is an account of results in ChEMBL document CHEMBL5365426, “Modification of N-hydroxycytidine yields a novel lead compound exhibiting activity against the Venezuelan equine encephalitis virus” (Bioorg Med Chem Lett, 2023).

In series [1] the test system is Venezuelan equine encephalitis virus. The experiment in a line: Antiviral activity against Venezuelan equine encephalitis virus infected in human MRC5 cells assessed as inhibition of viral infection at 100 uM relative to control. It counts as functional.
Series [2] has the same test system. Briefly: Antiviral activity against Venezuelan equine encephalitis virus infected in human MRC5 cells assessed as virus induced cell death at 100 uM relative to control. The series is classed as functional.
Series [3] shares this test system. Briefly: Antiviral activity against Venezuelan equine encephalitis virus infected in human MRC5 cells assessed as inhibition of virus induced cytopathic effect. It counts as functional, organism-based. In general terms: Cytopathic effects are the visible damage that an infection or toxin causes in cultured cells.
Series [4] is described as follows: Cytotoxicity against human MRC-5 cells assessed as reduction in cell viability. It counts as toxicity, cell-based, MRC5.
A short description of series [5]: Safety index, ratio of CC50 for cytotoxicity against human MRC-5 cells to EC50 for antiviral activity against Venezuelan equine encephalitis virus infected in human MRC5 cells. It counts as toxicity, cell-based. As to conditions: read-out: Ratio CC50/EC50.

By inhibition is commonly meant the drop in the measured response relative to a control, in per cent. Regarding `O=c1[nH]cc(CO)c(=O)[nH]1`, the inhibition at 100 µM in series [1] worked out at 16.8%. Further, the Activity in series [2] is 7.97%.
For `O=c1[nH]cc(COCc2ccccc2)c(=O)[nH]1`, in series [1], the inhibition at 100 µM amounted to 9.66%. Also, the Activity in series [2] is recorded as 0.22%.
Regarding `O=c1[nH]c(=O)n([C@@H]2O[C@H](CO)[C@@H](O)[C@H]2O)cc1COCc1ccccc1Cl`, the inhibition at 100 µM in series [1] amounted to 30.9%. Besides, in series [2], the Activity came to 12.17%.
As usually defined, the EC50 is the concentration needed to bring the measured effect to its halfway point. What is called CC50 is the concentration giving 50% cytotoxicity. With `CC(C)(C)C(OCc1cn([C@@H]2O[C@H](CO)[C@@H](O)[C@H]2O)c(=O)[nH]/c1=N\O)c1ccccc1Cl` (stereo partly specified), the EC50 in series [3] turned out to be 37.6 µM. Besides, the CC50 in series [4] amounted to 135 µM. Moreover, the inhibition at 100 µM in series [1] worked out at 95.3%. The selectivity ratio in series [5] turned out to be 3.59. In series [2], the Activity was 30.28%.
As to `CC(C)C(OCc1cn([C@@H]2O[C@H](CO)[C@@H](O)[C@H]2O)c(=O)[nH]c1=O)c1ccccc1` (stereo partly specified), the inhibition at 100 µM in series [1] came to 29%. Besides, the Activity in series [2] was determined as 9.09%.
For `Cc1ccccc1C(OCc1cn([C@@H]2O[C@H](CO)[C@@H](O)[C@H]2O)c(=O)[nH]/c1=N\O)C(C)(C)C` (stereo partly specified), in that order: 24.4% and 18.59%.
Turning to `CC(C)(C)C(OCc1cn([C@@H]2O[C@H](CO)[C@@H](O)[C@H]2O)c(=O)[nH]c1=O)c1ccccc1` (stereo partly specified), the inhibition at 100 µM in series [1] was 16.6%. Also, in series [2], the Activity is on record as 17.18%.
For `CCC(OCc1c[nH]c(=O)[nH]c1=O)c1ccccc1` (stereo unspecified), in that order: 24.8% and 6.21%.
On the same counts, the results for `CC(C)(C)C(OCc1cn([C@@H]2O[C@H](CO)[C@@H](O)[C@H]2O)c(=O)[nH]c1=N)c1ccccc1Cl` (stereo partly specified) are 29.3% and 18.8%.
For `CC(C)C(OCc1cn([C@@H]2O[C@H](CO)[C@@H](O)[C@H]2O)c(=O)[nH]c1=N)c1ccccc1` (stereo partly specified), in series [1], the inhibition at 100 µM came to 28.2%. Moreover, the Activity in series [2] is 7.99%.
With `N=c1[nH]c(=O)n([C@@H]2O[C@H](CO)[C@@H](O)[C@H]2O)cc1COC(c1ccccc1)C1CCCCC1` (stereo partly specified), the inhibition at 100 µM in series [1] was determined as 24.9%. Besides, the Activity in series [2] came to 17.83%.
For the molecule `N=c1[nH]c(=O)n([C@@H]2O[C@H](CO)[C@@H](O)[C@H]2O)cc1COCc1ccccc1Cl`, the inhibition at 100 µM in series [1] was found to be 29%. In series [2], the Activity is 10.11%.
Turning to `CC(OCc1cn([C@@H]2O[C@H](CO)[C@@H](O)[C@H]2O)c(=O)[nH]/c1=N\O)c1ccccc1` (stereo partly specified), the inhibition at 100 µM in series [1] stood at 10.5%. Besides, in series [2], the Activity stood at 5.54%.
`Cc1ccccc1C(OCc1cn([C@@H]2O[C@H](CO)[C@@H](O)[C@H]2O)c(=O)[nH]c1=O)C(C)(C)C` (stereo partly specified): in series [1], the inhibition at 100 µM was 34%. Further, the Activity in series [2] worked out at 27.83%.
In the case of `CC(OCc1cn([C@@H]2O[C@H](CO)[C@@H](O)[C@H]2O)c(=O)[nH]c1=N)c1ccccc1` (stereo partly specified), the inhibition at 100 µM in series [1] amounted to 31%. Besides, the Activity in series [2] came out at 11.51%.
With `CC(C)C(OCc1c[nH]c(=O)[nH]c1=O)c1ccccc1` (stereo unspecified), in series [1], the inhibition at 100 µM amounted to 5.87%. Further, the Activity in series [2] amounted to 7.76%.
`CCC(OCc1cn([C@@H]2O[C@H](CO)[C@@H](O)[C@H]2O)c(=O)[nH]/c1=N\O)c1ccccc1` (stereo partly specified): in series [1], the inhibition at 100 µM came out at 10.5%. Also, the Activity in series [2] came out at 4.87%.
In the case of `N=c1[nH]c(=O)n([C@@H]2O[C@H](CO)[C@@H](O)[C@H]2O)cc1COCc1ccccc1`, the inhibition at 100 µM in series [1] was found to be 24.9%. Moreover, the Activity in series [2] is on record as 18.86%.
On to `CC(C)C(OCc1cn([C@@H]2O[C@H](CO)[C@@H](O)[C@H]2O)c(=O)[nH]/c1=N\O)c1ccccc1` (stereo partly specified), for which the inhibition at 100 µM in series [1] is 16.5%. In series [2], the Activity came out at 9.54%.
`CC(C)(C)C(OCc1c[nH]c(=O)[nH]c1=O)c1ccccc1` (stereo unspecified): in series [1], the inhibition at 100 µM stood at 11.7%. Moreover, the Activity in series [2] worked out at 4.02%.
With `O=c1[nH]/c(=N\O)c(COC(c2ccccc2)C2CCCCC2)cn1[C@@H]1O[C@H](CO)[C@@H](O)[C@H]1O` (stereo partly specified), the inhibition at 100 µM in series [1] came out at 35.5%. In addition, in series [2], the Activity stood at 25.09%.
`Cc1ccccc1C(OCc1c[nH]c(=O)[nH]c1=O)C(C)(C)C` (stereo unspecified): the inhibition at 100 µM in series [1] was determined as 21.4%. Besides, the Activity in series [2] was 3.54%.
As for `O=c1[nH]c(=O)n([C@@H]2O[C@H](CO)[C@@H](O)[C@H]2O)cc1COCc1ccccc1`, in series [1], the inhibition at 100 µM came to 25.5%. Further, the Activity in series [2] came out at 22.88%.
`O=c1[nH]/c(=N\O)c(COCc2ccccc2)cn1[C@@H]1O[C@H](CO)[C@@H](O)[C@H]1O`: in series [1], the inhibition at 100 µM came to 12.4%. The Activity in series [2] is 16.09%.
Consider `O=c1[nH]/c(=N\O)c(CO)cn1[C@@H]1O[C@H](CO)[C@@H](O)[C@H]1O`, for which the inhibition at 100 µM in series [1] was 5.24%. For the same molecule, the Activity in series [2] worked out at 4.99%.
On the same counts, the results for `O=c1[nH]cc(COC(c2ccccc2)C2CCCCC2)c(=O)[nH]1` (stereo unspecified) are 10.5% and 8.05%.
Take `CC(C)(C)C(OCc1cn([C@@H]2O[C@H](CO)[C@@H](O)[C@H]2O)c(=O)[nH]/c1=N\O)c1ccccc1` (stereo partly specified): in series [1], the inhibition at 100 µM came out at 30.3%. The Activity in series [2] is on record as 20.09%.
For the molecule `CCC(OCc1cn([C@H]2O[C@H](CO)[C@@H](O)[C@H]2O)c(=O)[nH]c1=O)c1ccccc1` (stereo partly specified), the inhibition at 100 µM in series [1] is 26.3%. Also, the Activity in series [2] turned out to be 20.81%.
For the molecule `CC(C)(C)C(OCc1c[nH]c(=O)[nH]c1=O)c1ccccc1Cl` (stereo unspecified), in series [1], the inhibition at 100 µM was 11.6%. For the same molecule, the Activity in series [2] is listed as 4.74%.
For the molecule `O=c1[nH]c(=O)n([C@H]2O[C@H](CO)[C@@H](O)[C@H]2O)cc1COCc1ccccc1`, the inhibition at 100 µM in series [1] stood at 23%. Also, the Activity in series [2] is given as 11.03%.
For `N=c1[nH]c(=O)n([C@@H]2O[C@H](CO)[C@@H](O)[C@H]2O)cc1CO`, in series [1], the inhibition at 100 µM was determined as 12.2%. The Activity in series [2] was 29.79%.
`CC(OCc1c[nH]c(=O)[nH]c1=O)c1ccccc1` (stereo unspecified): the inhibition at 100 µM in series [1] was found to be 10.1%. In series [2], the Activity turned out to be 11.63%.
For the molecule `CC(OCc1cn([C@@H]2O[C@H](CO)[C@@H](O)[C@H]2O)c(=O)[nH]c1=O)c1ccccc1` (stereo partly specified), the inhibition at 100 µM in series [1] came out at 16.8%. Further, the Activity in series [2] came out at 5.05%.
As for `O=c1[nH]c(=O)n([C@H]2O[C@H](CO)[C@@H](O)[C@H]2O)cc1COCc1ccccc1Cl`, the inhibition at 100 µM in series [1] came out at 18.8%. Also, the Activity in series [2] is recorded as 12.73%.
On the same counts, the results for `O=c1[nH]cc(COCc2ccccc2Cl)c(=O)[nH]1` are 12.9% and 9.35%.
Consider `CCC(OCc1cn([C@@H]2O[C@H](CO)[C@@H](O)[C@H]2O)c(=O)[nH]c1=N)c1ccccc1` (stereo partly specified), for which the inhibition at 100 µM in series [1] stood at 14.3%. Moreover, in series [2], the Activity was 8.31%.
For `O=c1[nH]c(=O)n([C@@H]2O[C@H](CO)[C@@H](O)[C@H]2O)cc1CO`, the inhibition at 100 µM in series [1] was 17.4%. Moreover, the Activity in series [2] turned out to be 11.71%.
For the molecule `Cc1ccccc1C(OCc1cn([C@@H]2O[C@H](CO)[C@@H](O)[C@H]2O)c(=O)[nH]c1=N)C(C)(C)C` (stereo partly specified), the inhibition at 100 µM in series [1] is 34.4%. For the same molecule, the Activity in series [2] is recorded as 22.95%.
`O=c1[nH]/c(=N\O)c(COCc2ccccc2Cl)cn1[C@@H]1O[C@H](CO)[C@@H](O)[C@H]1O`: the inhibition at 100 µM in series [1] was found to be 41.1%. In series [2], the Activity is listed as 6.38%.
For the molecule `CC(C)C(OCc1cn([C@H]2O[C@H](CO)[C@@H](O)[C@H]2O)c(=O)[nH]c1=O)c1ccccc1` (stereo partly specified), the inhibition at 100 µM in series [1] is 20.5%. Further, the Activity in series [2] amounted to 17.19%.
Consider `CC(C)(C)C(OCc1cn([C@@H]2O[C@H](CO)[C@@H](O)[C@H]2O)c(=O)[nH]c1=N)c1ccccc1` (stereo partly specified), for which, in series [1], the inhibition at 100 µM was 13.1%. For the same molecule, the Activity in series [2] came out at 10.91%.
`O=c1[nH]c(=O)n([C@@H]2O[C@H](CO)[C@@H](O)[C@H]2O)cc1COC(c1ccccc1)C1CCCCC1` (stereo partly specified): the inhibition at 100 µM in series [1] amounted to 15.9%. Moreover, in series [2], the Activity is on record as 16.28%.
For the molecule `CC(C)(C)C(OCc1cn([C@@H]2O[C@H](CO)[C@@H](O)[C@H]2O)c(=O)[nH]c1=O)c1ccccc1Cl` (stereo partly specified), the inhibition at 100 µM in series [1] came to 37.2%. For the same molecule, the Activity in series [2] is given as 20.09%.
As for `CCC(OCc1cn([C@@H]2O[C@H](CO)[C@@H](O)[C@H]2O)c(=O)[nH]c1=O)c1ccccc1` (stereo partly specified), in series [1], the inhibition at 100 µM came to 22.1%. The Activity in series [2] is 8.2%.
Turning to `CC(OCc1cn([C@H]2O[C@H](CO)[C@@H](O)[C@H]2O)c(=O)[nH]c1=O)c1ccccc1` (stereo partly specified), the inhibition at 100 µM in series [1] worked out at 30.6%. In addition, the Activity in series [2] is 25.09%.
Take `O=c1nc(NO)ccn1[C@@H]1O[C@H](CO)[C@@H](O)[C@H]1O` [N-HYDROXYCYTIDINE]: the concentration for a half-maximal effect (EC50) in series [3] came out at 2.3 µM. Moreover, the CC50 in series [4] was 95.5 µM. The selectivity ratio in series [5] turned out to be 41.5.
